Source: PMC9571063 (Molecules, 2022)
Counter-ions that a name gives are not always drawn. Like-named read-outs stand apart in the source and are kept apart here.

Legend:
[1] = cytotoxic assay, nuclei count (Hoechst, HCS); assay type: cell-based; conditions: human, HuH7 cells (hepatocellular carcinoma); 48 h treatment; read-out: Cytotoxic studies IC50 HuH7
[2] = cytotoxic assay, nuclei count (Hoechst, HCS); assay type: cell-based; conditions: human, Caco-2 cells (colorectal adenocarcinoma); 48 h treatment; read-out: Cytotoxic studies IC50 Caco2
Hs_CK1ε = biological target: T1, Hs_CK1ε (Homo sapiens, UniProt P49674); assay: ADP-Glo kinase assay, primary screen; assay type: biochemical; conditions: n=2, read-out: % of residual activity Hs_CK1ε
T1 construct: host or cells: Sf9 insect cells (baculovirus)
T1 sequence (P49674 whole entry): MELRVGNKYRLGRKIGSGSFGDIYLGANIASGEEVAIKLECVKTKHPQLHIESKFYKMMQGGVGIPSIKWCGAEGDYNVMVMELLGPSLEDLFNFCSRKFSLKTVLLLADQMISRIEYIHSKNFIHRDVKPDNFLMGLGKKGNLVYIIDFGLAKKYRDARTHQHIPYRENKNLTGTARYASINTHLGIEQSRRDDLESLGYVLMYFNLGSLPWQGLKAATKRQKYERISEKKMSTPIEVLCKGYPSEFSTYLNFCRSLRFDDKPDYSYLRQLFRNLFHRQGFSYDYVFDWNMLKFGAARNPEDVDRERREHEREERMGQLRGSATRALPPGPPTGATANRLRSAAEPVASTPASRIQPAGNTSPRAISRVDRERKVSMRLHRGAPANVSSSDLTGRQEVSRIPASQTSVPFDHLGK

Hs_GSK3β = biological target: T2, Hs_GSK3β (Homo sapiens, UniProt P49841); assay: ADP-Glo kinase assay, primary screen; assay type: biochemical; conditions: n=2, read-out: % of residual activity Hs_GSK3β
T2 construct: host or cells: Sf9 insect cells (baculovirus)
T2 sequence (P49841 whole entry): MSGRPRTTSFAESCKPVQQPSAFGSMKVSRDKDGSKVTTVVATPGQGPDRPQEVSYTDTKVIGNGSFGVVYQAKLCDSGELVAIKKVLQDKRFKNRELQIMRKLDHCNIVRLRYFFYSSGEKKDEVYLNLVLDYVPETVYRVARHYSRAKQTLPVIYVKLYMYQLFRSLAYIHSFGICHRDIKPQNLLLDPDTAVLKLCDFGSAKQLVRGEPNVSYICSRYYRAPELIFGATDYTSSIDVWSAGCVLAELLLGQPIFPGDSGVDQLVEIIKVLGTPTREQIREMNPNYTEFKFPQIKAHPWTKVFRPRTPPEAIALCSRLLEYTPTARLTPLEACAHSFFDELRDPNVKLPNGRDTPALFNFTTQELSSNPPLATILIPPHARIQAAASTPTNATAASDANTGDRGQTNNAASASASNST

[3] = cytotoxic assay, nuclei count (Hoechst, HCS); assay type: cell-based; conditions: human, 48 h treatment
Experimental: (§1) To complete our study, we performed a cytotoxicity screening of the 15 molecules, investigating 7 representative cancer cell lines. The compound’s effect on cell viability was evaluated on Huh-7 (hepatocellular carcinoma), CaCo2, HCT-116 (colorectal adenocarcinoma), MCF7, MDA-MB231, MDA-MB468 (breast carcinoma), PC3 (prostate carcinoma) and NCI-H727 (lung carcinoid). Human skin fibroblasts were used as reference for non-cancerous cells. Roscovitine, Doxorubicin and Taxol were used as positive controls. The cells were treated for 48 h with 25 µM compounds and fixed in cooled 90% ethanol/5% acetic acid for 20 min. The nuclei were stained with Hoechst 33342 and counted using HCS technology.
(§2) HuH7, CaCo-2, MDA-MB-231, HCT116, PC3, MCF7 and NCI-H727 cancer cell lines were obtained from the ECACC collection (Porton Down, UK). Cells were grown at 37 °C, 5% CO2 in ECACC recommended media: DMEM for HuH7, MDA-MB-231 and fibroblast, EMEM for MCF7and CaCo-2, McCoy’s for HCT116 and RPMI for PC3 and NCI-H727. All culture media were supplemented with 10% of FBS, 1% of penicillin-streptomycin and 2 mM glutamine.
(§3) Chemicals were solubilized in DMSO at a concentration of 10 mM (stock solution) and diluted in culture medium to the desired final concentrations.
[…] Cells were plated in 96 wells plates (4000 cells/well). Twenty-four hours after seeding, cells were exposed to chemicals. After 48 h of treatment, cells were washed in PBS and fixed in cooled 90% ethanol/5% acetic acid for 20 min and the nuclei were stained with Hoechst 33342 (B2261 Sigma). Image acquisition and analysis were performed using a CellomicsArrayScan VTI/HCS Reader (ThermoScientific, Waltham, MA, USA). The survival percentages were calculated as the percentage of cell number after compound treatment over cell number after DMSO treatment.

MmCLK1 = biological target: T3, MmCLK1 (Mus musculus, UniProt P22518); assay: ADP-Glo kinase assay; assay type: biochemical; conditions: for remaining activity at 1 µM / remaining activity at 10 µM: n=2, read-out: % of residual activity Mm_CLK1; for IC50: mouse CLK1 orthologue, read-out: IC50 MmCLK1
T3 construct: host or cells: bacteria
T3 sequence (P22518 whole entry): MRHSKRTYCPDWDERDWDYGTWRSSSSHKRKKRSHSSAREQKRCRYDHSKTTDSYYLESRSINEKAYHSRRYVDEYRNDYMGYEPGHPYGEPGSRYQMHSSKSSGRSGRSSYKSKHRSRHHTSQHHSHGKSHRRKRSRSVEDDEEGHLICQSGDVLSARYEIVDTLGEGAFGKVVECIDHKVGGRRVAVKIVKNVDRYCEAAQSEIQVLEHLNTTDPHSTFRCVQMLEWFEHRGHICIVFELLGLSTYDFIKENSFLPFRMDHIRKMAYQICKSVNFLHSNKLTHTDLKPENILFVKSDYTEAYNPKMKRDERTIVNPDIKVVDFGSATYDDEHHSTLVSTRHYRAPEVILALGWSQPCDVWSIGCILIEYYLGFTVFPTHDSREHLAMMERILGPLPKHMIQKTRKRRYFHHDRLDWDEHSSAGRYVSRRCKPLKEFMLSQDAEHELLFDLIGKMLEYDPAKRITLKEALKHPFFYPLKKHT

[4] = cytotoxic assay, nuclei count (Hoechst, HCS); assay type: cell-based; conditions: human, MCF7 cells (breast carcinoma); 48 h treatment; read-out: Cytotoxic studies IC50 MCF7
Experimental: as §1, §2, §3
(§4) The cytotoxic assay of chemical was performed at 25 µM. Cells were plated in 96 wells plates (4000 cells/well). Twenty-four hours after seeding, cells were exposed to chemicals. After 48 h of treatment, cells were washed in PBS and fixed in cooled 90% ethanol/5% acetic acid for 20 min and the nuclei were stained with Hoechst 33342 (B2261 Sigma). Image acquisition and analysis were performed using a CellomicsArrayScan VTI/HCS Reader (ThermoScientific, Waltham, MA, USA). The survival percentages were calculated as the percentage of cell number after compound treatment over cell number after DMSO treatment.

Rn_DYRK1A = biological target: T4, Rn_DYRK1A (Rattus norvegicus, UniProt Q63470); assay: ADP-Glo kinase assay, primary screen; assay type: biochemical; conditions: n=2, read-out: % of residual activity Rn_DYRK1A
T4 construct: host or cells: bacteria

Hs_HASPIN = biological target: T5, Hs_HASPIN (Homo sapiens, UniProt Q8TF76); assay: ADP-Glo kinase assay, primary screen; assay type: biochemical; conditions: n=2, read-out: % of residual activity Hs_HASPIN
T5 construct: host or cells: bacteria
T5 sequence (Q8TF76 1-798): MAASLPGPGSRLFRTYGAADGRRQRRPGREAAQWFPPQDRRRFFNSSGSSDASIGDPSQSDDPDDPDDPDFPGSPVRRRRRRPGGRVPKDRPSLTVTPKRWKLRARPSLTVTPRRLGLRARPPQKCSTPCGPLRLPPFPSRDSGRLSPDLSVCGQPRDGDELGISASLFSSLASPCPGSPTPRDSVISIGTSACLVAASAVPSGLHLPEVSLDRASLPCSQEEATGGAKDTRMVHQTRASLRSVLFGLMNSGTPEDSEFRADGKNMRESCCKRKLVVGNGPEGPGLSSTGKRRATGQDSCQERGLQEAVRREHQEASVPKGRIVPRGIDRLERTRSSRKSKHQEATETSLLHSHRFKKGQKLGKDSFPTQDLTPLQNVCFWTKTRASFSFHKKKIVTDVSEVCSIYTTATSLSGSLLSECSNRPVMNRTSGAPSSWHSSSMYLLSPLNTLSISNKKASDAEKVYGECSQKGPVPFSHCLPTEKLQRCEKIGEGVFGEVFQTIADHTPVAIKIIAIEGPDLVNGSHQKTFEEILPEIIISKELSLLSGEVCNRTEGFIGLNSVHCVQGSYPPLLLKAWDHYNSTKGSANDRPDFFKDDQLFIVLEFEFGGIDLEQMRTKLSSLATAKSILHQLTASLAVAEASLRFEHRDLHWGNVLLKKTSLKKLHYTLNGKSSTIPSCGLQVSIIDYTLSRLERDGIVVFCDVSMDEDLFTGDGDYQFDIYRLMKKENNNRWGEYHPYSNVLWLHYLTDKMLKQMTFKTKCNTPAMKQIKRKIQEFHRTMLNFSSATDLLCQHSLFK

Hs_CDK9/CyclinT = biological target: T6, Hs_CDK9/CyclinT (Homo sapiens, UniProt P50750); assay: ADP-Glo kinase assay, primary screen; assay type: biochemical; conditions: n=2, read-out: % of residual activity Hs_CDK9/CyclinT
T6 construct: host or cells: Sf9 insect cells (baculovirus)
T6 sequence (P50750 whole entry): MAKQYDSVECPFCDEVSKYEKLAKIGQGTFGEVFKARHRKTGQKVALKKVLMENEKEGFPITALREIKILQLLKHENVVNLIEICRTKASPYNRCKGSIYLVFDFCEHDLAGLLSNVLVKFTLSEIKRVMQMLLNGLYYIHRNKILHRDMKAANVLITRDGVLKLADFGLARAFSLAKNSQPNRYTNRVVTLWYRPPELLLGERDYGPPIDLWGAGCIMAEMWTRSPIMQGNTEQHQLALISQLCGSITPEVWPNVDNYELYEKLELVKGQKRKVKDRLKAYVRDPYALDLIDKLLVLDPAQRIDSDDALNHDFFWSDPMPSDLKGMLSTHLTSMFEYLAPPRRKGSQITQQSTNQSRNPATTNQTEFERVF
T6 sequence (O60563 whole entry partner): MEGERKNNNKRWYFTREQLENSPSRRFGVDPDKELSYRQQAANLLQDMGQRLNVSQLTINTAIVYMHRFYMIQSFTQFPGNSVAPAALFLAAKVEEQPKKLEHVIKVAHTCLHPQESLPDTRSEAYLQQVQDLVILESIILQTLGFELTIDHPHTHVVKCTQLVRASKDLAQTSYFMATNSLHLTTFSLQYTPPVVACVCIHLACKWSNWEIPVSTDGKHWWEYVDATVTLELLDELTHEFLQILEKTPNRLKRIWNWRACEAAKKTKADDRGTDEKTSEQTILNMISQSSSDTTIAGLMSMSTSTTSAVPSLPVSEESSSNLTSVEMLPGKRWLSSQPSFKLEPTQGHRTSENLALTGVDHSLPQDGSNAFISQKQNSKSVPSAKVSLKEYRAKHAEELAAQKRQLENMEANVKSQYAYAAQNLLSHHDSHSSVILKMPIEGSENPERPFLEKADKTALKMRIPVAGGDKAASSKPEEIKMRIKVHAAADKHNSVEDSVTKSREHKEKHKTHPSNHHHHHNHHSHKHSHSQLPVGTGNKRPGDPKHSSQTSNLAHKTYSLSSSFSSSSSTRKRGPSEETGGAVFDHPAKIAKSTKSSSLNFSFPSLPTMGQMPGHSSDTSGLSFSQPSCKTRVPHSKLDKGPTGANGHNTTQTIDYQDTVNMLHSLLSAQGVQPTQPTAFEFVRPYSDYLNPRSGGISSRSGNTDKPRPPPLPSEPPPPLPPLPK

Hs_PIM1 = biological target: T7, Hs_PIM1 (Homo sapiens, UniProt P11309); assay: ADP-Glo kinase assay, primary screen; assay type: biochemical; conditions: n=2, read-out: % of residual activity Hs_PIM1
T7 construct: host or cells: Sf9 insect cells (baculovirus)
T7 sequence (P11309 whole entry): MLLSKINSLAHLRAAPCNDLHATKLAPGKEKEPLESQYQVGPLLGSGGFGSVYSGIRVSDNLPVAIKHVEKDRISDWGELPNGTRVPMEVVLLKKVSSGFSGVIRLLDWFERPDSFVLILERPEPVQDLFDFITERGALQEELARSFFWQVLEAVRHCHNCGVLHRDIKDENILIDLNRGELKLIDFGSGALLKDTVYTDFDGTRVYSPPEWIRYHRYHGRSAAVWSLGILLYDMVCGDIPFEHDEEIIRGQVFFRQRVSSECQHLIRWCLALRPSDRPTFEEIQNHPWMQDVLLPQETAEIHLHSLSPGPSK

[5] = cytotoxic assay, nuclei count (Hoechst, HCS); assay type: cell-based; conditions: human, MDA-MB-231 cells (breast carcinoma); 48 h treatment; read-out: Cytotoxic studies IC50 MDA-MB-231
[6] = cytotoxic assay, nuclei count (Hoechst, HCS); assay type: cell-based, human; conditions: human, human skin fibroblasts (non-cancerous reference cells); 48 h treatment; some cells add low/moderate/high amplitude; read-out: Cytotoxic studies IC50 Fibroblasts
Experimental: as §1, §2, §3, §4

Hs_CDK5/p25 = biological target: T8, Hs_CDK5/p25 (Homo sapiens, UniProt Q00535); assay: ADP-Glo kinase assay, primary screen; assay type: biochemical; conditions: n=2, read-out: % of residual activity Hs_CDK5/p25
T8 construct: host or cells: bacteria
T8 sequence (Q00535 whole entry): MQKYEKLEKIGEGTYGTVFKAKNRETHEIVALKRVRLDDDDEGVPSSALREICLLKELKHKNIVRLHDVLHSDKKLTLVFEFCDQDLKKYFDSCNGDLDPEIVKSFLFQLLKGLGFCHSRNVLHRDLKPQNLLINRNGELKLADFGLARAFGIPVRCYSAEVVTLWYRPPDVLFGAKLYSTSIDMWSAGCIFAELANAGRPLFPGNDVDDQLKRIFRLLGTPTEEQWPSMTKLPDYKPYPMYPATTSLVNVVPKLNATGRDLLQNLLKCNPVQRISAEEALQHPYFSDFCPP
T8 sequence (Q15078 99-307 partner limits assumed): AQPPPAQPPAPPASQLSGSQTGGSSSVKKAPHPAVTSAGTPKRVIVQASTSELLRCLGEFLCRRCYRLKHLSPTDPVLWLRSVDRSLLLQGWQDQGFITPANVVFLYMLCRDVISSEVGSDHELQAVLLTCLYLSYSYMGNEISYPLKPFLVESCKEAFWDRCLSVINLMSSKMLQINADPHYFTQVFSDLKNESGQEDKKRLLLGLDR

HsDYRK1A = biological target: T9, HsDYRK1A (Homo sapiens, UniProt Q13627); assay: ADP-Glo kinase assay; assay type: biochemical; conditions: for remaining activity at 1 µM / remaining activity at 10 µM: n=2, read-out: % of residual activity Hs_DYRK1A; for IC50: 10 µM ATP, duplicate
T9 construct: host or cells: Sf9 insect cells (baculovirus)

[7] = HCT116 cells (colorectal adenocarcinoma), read-out: Cytotoxic studies IC50 HCT116
[8] = MDA-MB-468 cells (breast carcinoma), read-out: Cytotoxic studies IC50 MDA-MB-468

SMILES	IC50 at 48 h [1]	IC50 at 48 h [2]	remaining activity at 1 µM (Hs_CK1ε)	remaining activity at 10 µM (Hs_CK1ε)	remaining activity at 1 µM (Hs_GSK3β)	remaining activity at 10 µM (Hs_GSK3β)	IC50 at 48 h [3, 7]	IC50 at 48 h [3, 8]	remaining activity at 1 µM (MmCLK1)	remaining activity at 10 µM (MmCLK1)	IC50 at 48 h [4]	remaining activity at 1 µM (Rn_DYRK1A)	remaining activity at 10 µM (Rn_DYRK1A)	remaining activity at 1 µM (Hs_HASPIN)	remaining activity at 10 µM (Hs_HASPIN)	remaining activity at 1 µM (Hs_CDK9/CyclinT)	remaining activity at 10 µM (Hs_CDK9/CyclinT)	remaining activity at 1 µM (Hs_PIM1)	remaining activity at 10 µM (Hs_PIM1)	IC50 at 48 h [5]	also measured
CC(C)(C)OC(=O)N[C@H]1CC[C@H](n2cc(COc3cccc4cnc(Nc5cc(Cl)cc(Cl)c5)nc34)nn2)CC1 [18b, tert-Butyl ((trans)-4-(4-(((2-((3,5-dichlorophenyl)amino)quinazolin-8-yl)oxy)methyl)-1H-1,2,3-triazol-1-yl)cyclohexyl)carbamate]	10 µM	> 25 µM	≥ 100%	92%	75%	35%	> 25 µM	> 25 µM	86%	72%	> 25 µM	≥ 100%	≥ 100%	72%	53%	98%	83%	94%	68%	> 25 µM	IC50 at 48 h [6]: > 25 µM; remaining activity at 1 µM (Hs_CDK5/p25): 85%; remaining activity at 10 µM (Hs_CDK5/p25): 81%; remaining activity at 1 µM (HsDYRK1A): ≥ 100%; remaining activity at 10 µM (HsDYRK1A): 85%
N[C@H]1CC[C@H](n2cc(COc3cccc4cnc(Nc5cc(Cl)cc(Cl)c5)nc34)nn2)CC1 [19b, 8-((1-((trans)-4-Aminocyclohexyl)-1H-1,2,3-triazol-4-yl)methoxy)-N-(3,5-dichlorophenyl)quinazolin-2-amine hydrochloride]	14 µM	3 µM	63%	20%	44%	15%	4 µM	1.3 µM	12%	7%	3 µM	92%	92%	95%	90%	91%	42%	79%	44%	2 µM	IC50 (MmCLK1): 0.21 µM; IC50 at 48 h [6]: 3 µM; remaining activity at 1 µM (Hs_CDK5/p25): ≥ 100%; remaining activity at 10 µM (Hs_CDK5/p25): 42%; remaining activity at 1 µM (HsDYRK1A): ≥ 100%; IC50 (HsDYRK1A): 5.44 µM; remaining activity at 10 µM (HsDYRK1A): 55%
N[C@H]1CC[C@H](n2cc(COc3cccc4cnc(Nc5cccc(Cl)c5)nc34)nn2)CC1 [19a, 8-((1-((trans)-4-Aminocyclohexyl)-1H-1,2,3-triazol-4-yl)methoxy)-N-(3-chlorophenyl)quinazolin-2-amine hydrochloride]	8 µM	11 µM	73%	22%	50%	23%	7 µM	7 µM	20%	10%	11 µM	78%	64%	70%	92%	65%	30%	62%	40%	6 µM	IC50 (MmCLK1): 0.2 µM; IC50 at 48 h [6]: 1.3 µM; remaining activity at 1 µM (Hs_CDK5/p25): ≥ 100%; remaining activity at 10 µM (Hs_CDK5/p25): 30%; remaining activity at 1 µM (HsDYRK1A): 84%; IC50 (HsDYRK1A): 3.72 µM; remaining activity at 10 µM (HsDYRK1A): 34%
